# Assay results from US8361964B2, “Growth hormone releasing factor (GRF) analogs and uses thereof” (Theratechnologies Inc., priority 2011, dated 2013).
# Where a SMILES comes first, the peptide text is derived from it.
# Legend:
# Growth Hormone secretion [1] = experiment: Growth Hormone secretion in female rats after subcutaneous GRF analog; format: in vivo; conditions: female Sprague-Dawley rats; 10 μg/rat subcutaneous; plasma 0-60 minutes
# Text: Sprague-Dawley rats (female, weighting from 250 to 300 g) were obtained from Charles River Inc. Animals were used according to a protocol of the Animal Care Committee along with the principles of the Guide for the Care and Use of Experimental Animals of the Canadian Council on Animal Care. The animals were maintained on standard laboratory chow under a 12:12 light:dark cycle. They were kept in groups of 4 rats per cage.
# The animals were anesthetized with isoflurane 2.5%. A mid-section opening was made in the neck to expose the carotid artery. The carotid artery was canulated with polypropylene tubing (PE-50) to allow blood withdrawal. After surgical preparation, rats received a subcutaneous injection of GRF analog (10 μg/rat dissolved in 20 mM AcONa+5% mannitol at pH 5). For pharmacodynamics studies, blood samples (400 μL) were collected from 4 to 8 animals per group per time point. Blood samples (400 μl) were collected via the carotid catheter at 0, 10, 20, 30, 45 and 60 minutes after drug injection. Blood was placed into microtainer pre-treated with K3EDTA and immediately centrifuged at 13,000 RPM in a desktop centrifuge for 2 minutes. The plasma was collected and placed into a screw cap Eppendorf™ and quick frozen in liquid nitrogen. The samples were then kept at −80° C. until assayed. Determination of GH levels was performed as described below.
# (§1) Rat and mouse plasma samples were vortexed carefully and centrifuged at 9,000 RPM for 2 min at 4° C. The dosage of GH levels was performed using the Rat/Mouse Growth Hormone ELISA kit from Millipore (Cat. # EZRMGH-45K). Sample supernatants were first diluted 20-fold with the GH ELISA assay buffer, and 10 μl of this dilution was added to the ELISA plate with 90 μl of GH EIA assay buffer. The remaining of the procedure was performed according to the manufacturer's instructions, and the data obtained were analyzed using GraphPad Prism™ software.
# (§2) The GRF analogs described herein were tested for their ability to induce GH release in female mice and rats. […] The data are presented in Tables III (mice) and IV-V (rats).
# Growth Hormone secretion [2] = experiment: Growth Hormone secretion in female mice after subcutaneous GRF analog; format: in vivo; conditions: female CD-1 mice; 10 μg/mouse subcutaneous; plasma 10 minutes after injection
# Text: CD-1 mice (female, weighting from 20 to 25 g) were obtained from Charles River Inc. Animals were used according to a protocol of the Animal Care Committee along with the principles of the Guide for the Care and Use of Experimental Animals of the Canadian Council on Animal Care. The animals were maintained on standard laboratory chow under a 12:12 light:dark cycle. They were kept in groups of 4 mice per cage.
# At the day of the experiment, mice received a subcutaneous injection of GRF analog (10 μg/mouse dissolved in 20 mM sodium acetate (AcONa)+5% mannitol at pH 5). 10 minutes after injection, the mice were anesthezied with isolufrane. Blood samples (500 μl) were obtained by intra-cardiac puncture. Blood was placed into microtainer pre-treated with K3EDTA and immediately centrifuged at 13,000 RPM in a desktop centrifuge for 2 minutes. The plasma was collected and placed into a screwcap Eppendorf™ tube and quick frozen in liquid nitrogen. The samples were then kept at −80° C. until assayed. Determination of GH levels was performed as described below.
# as §1, §2
SMILES,"Mean AUC (GH Area Under the curve, GH concentration over time) (Growth Hormone secretion [1])",Mean Cmax (ng/ml) of Growth Hormone secretion (Growth Hormone secretion [1]) [ng/mL],GH levels 10 min (Growth Hormone secretion [2]) [ng/mL]
"CC/C=C/CC(=O)N[C@@H](Cc1ccc(O)cc1)C(=O)N[C@@H](C)C(=O)N[C@@H](CC(=O)O)C(=O)N[C@@H](C)C(=O)N[C@H](C(=O)N[C@@H](Cc1ccccc1)C(=O)N[C@H](C(=O)N[C@@H](CC(=O)O)C(=O)N[C@@H](CO)C(=O)N[C@@H](Cc1ccc(O)cc1)C(=O)N[C@@H](CCCNC(=N)N)C(=O)N[C@@H](CCCCN)C(=O)N[C@H](C(=O)N[C@@H](CC(C)C)C(=O)N[C@@H](C)C(=O)N[C@@H](CCC(N)=O)C(=O)N[C@@H](CC(C)C)C(=O)N[C@@H](CCCCN)C(=O)N[C@@H](C)C(=O)N[C@@H](CCCNC(=N)N)C(=O)N[C@@H](CCC(N)=O)C(=O)N[C@@H](CC(=O)O)C(=O)N[C@H](C(=O)N[C@@H](CC(C)C)C(=O)N[C@@H](C)C(=O)N[C@@H](CCCNC(=N)N)C(=O)N[C@@H](C)C(=O)N[C@@H](C)C(=O)N[C@@H](CCCNC(=N)N)C(N)=O)[C@@H](C)CC)C(C)C)[C@@H](C)O)[C@@H](C)CC [SEQ ID NO: 26, Trans-3-hexenoyl-YADAIFTDSYRKVLAQLKARQDILARAAR-NH2] (HELM PEPTIDE1{[CC/C=C/CC(=O)[*:2]].Y.A.D.A.I.F.T.D.S.Y.R.K.V.L.A.Q.L.K.A.R.Q.D.I.L.A.R.A.A.R.[am]}$$$$V2.0)",8880,468.1,484.6
"CC/C=C/CC(=O)N[C@@H](Cc1ccc(O)cc1)C(=O)N[C@@H](C)C(=O)N[C@@H](CC(=O)O)C(=O)N[C@@H](C)C(=O)N[C@H](C(=O)N[C@@H](Cc1ccccc1)C(=O)N[C@H](C(=O)N[C@@H](CC(=O)O)C(=O)N[C@@H](CO)C(=O)N[C@@H](Cc1ccc(O)cc1)C(=O)N[C@@H](CCCNC(=N)N)C(=O)N[C@@H](CCCCN)C(=O)N[C@H](C(=O)N[C@@H](CC(C)C)C(=O)N[C@@H](C)C(=O)N[C@@H](CCC(N)=O)C(=O)N[C@@H](CC(C)C)C(=O)N[C@@H](CO)C(=O)N[C@@H](C)C(=O)N[C@@H](CCCNC(=N)N)C(=O)N[C@@H](CCC(N)=O)C(=O)N[C@@H](CC(=O)O)C(=O)N[C@H](C(=O)N[C@@H](CC(C)C)C(=O)N[C@@H](C)C(=O)N[C@@H](CCCNC(=N)N)C(=O)N[C@@H](C)C(=O)N[C@@H](C)C(=O)N[C@@H](CCCNC(=N)N)C(=O)N[C@@H](C)C(=O)N[C@@H](C)C(=O)N[C@@H](CCCNC(=N)N)C(N)=O)[C@@H](C)CC)C(C)C)[C@@H](C)O)[C@@H](C)CC [SEQ ID NO: 27, Trans-3-hexenoyl-YADAIFTDSYRKVLAQLSARQDILARAARAAR-NH2] (HELM PEPTIDE1{[CC/C=C/CC(=O)[*:2]].Y.A.D.A.I.F.T.D.S.Y.R.K.V.L.A.Q.L.S.A.R.Q.D.I.L.A.R.A.A.R.A.A.R.[am]}$$$$V2.0)",8350,455.6,323.6
"CC[C@H](C)[C@H](NC(=O)[C@H](C)NC(=O)[C@H](CC(=O)O)NC(=O)[C@@H](C)NC(=O)[C@@H](N)Cc1ccc(O)cc1)C(=O)N[C@@H](Cc1ccccc1)C(=O)N[C@H](C(=O)N[C@@H](CC(=O)O)C(=O)N[C@@H](CO)C(=O)N[C@@H](Cc1ccc(O)cc1)C(=O)N[C@@H](CCCNC(=N)N)C(=O)N[C@@H](CCCCN)C(=O)N[C@H](C(=O)N[C@@H](CC(C)C)C(=O)N[C@@H](C)C(=O)N[C@@H](CCC(N)=O)C(=O)N[C@@H](CC(C)C)C(=O)N[C@@H](CCCCN)C(=O)N[C@@H](CC(C)C)C(=O)N[C@@H](CCCNC(=N)N)C(=O)N[C@@H](CCC(N)=O)C(=O)N[C@@H](CC(=O)O)C(=O)N[C@H](C(=O)N[C@@H](CC(C)C)C(=O)N[C@@H](C)C(=O)N[C@@H](CCCNC(=N)N)C(=O)N[C@@H](C)C(=O)N[C@@H](C)C(=O)N[C@@H](CCCNC(=N)N)C(=O)N[C@@H](C)C(=O)N[C@@H](C)C(=O)N[C@@H](CCCNC(=N)N)C(N)=O)[C@@H](C)CC)C(C)C)[C@@H](C)O [SEQ ID NO: 29, Y-a-DAIFTDSYRKVLAQLKLRQDILARAARAAR-NH2] (HELM PEPTIDE1{Y.[dA].D.A.I.F.T.D.S.Y.R.K.V.L.A.Q.L.K.L.R.Q.D.I.L.A.R.A.A.R.A.A.R.[am]}$$$$V2.0)",9442,466.7,457.7
"CC[C@H](C)[C@H](NC(=O)[C@H](C)NC(=O)[C@H](CC(=O)O)NC(=O)[C@@H](C)NC(=O)[C@@H](N)Cc1ccc(O)cc1)C(=O)N[C@@H](Cc1ccccc1)C(=O)N[C@H](C(=O)N[C@@H](CC(=O)O)C(=O)N[C@@H](CO)C(=O)N[C@@H](Cc1ccc(O)cc1)C(=O)N[C@@H](CCCNC(=N)N)C(=O)N[C@@H](CCCCN)C(=O)N[C@H](C(=O)N[C@@H](CC(C)C)C(=O)N[C@@H](C)C(=O)N[C@@H](CCC(N)=O)C(=O)N[C@@H](CC(C)C)C(=O)N[C@@H](CCCCN)C(=O)N[C@@H](C)C(=O)N[C@@H](CCCNC(=N)N)C(=O)N[C@@H](CCC(N)=O)C(=O)N[C@@H](CC(=O)O)C(=O)N[C@@H](CC(C)C)C(=O)N[C@@H](CC(C)C)C(=O)N[C@@H](C)C(=O)N[C@@H](CCCNC(=N)N)C(=O)N[C@@H](C)C(=O)N[C@@H](C)C(=O)N[C@@H](CCCNC(=N)N)C(=O)N[C@@H](C)C(=O)N[C@@H](C)C(=O)N[C@@H](CCCNC(=N)N)C(N)=O)C(C)C)[C@@H](C)O [SEQ ID NO: 30, Y-a-DAIFTDSYRKVLAQLKARQDLLARAARAAR-NH2] (HELM PEPTIDE1{Y.[dA].D.A.I.F.T.D.S.Y.R.K.V.L.A.Q.L.K.A.R.Q.D.L.L.A.R.A.A.R.A.A.R.[am]}$$$$V2.0)",12282,664.1,493.3
"CC/C=C/CC(=O)N[C@@H](Cc1ccc(O)cc1)C(=O)N[C@@H](C)C(=O)N[C@@H](CC(=O)O)C(=O)N[C@@H](C)C(=O)N[C@H](C(=O)N[C@@H](Cc1ccccc1)C(=O)N[C@H](C(=O)N[C@@H](CC(=O)O)C(=O)N[C@@H](CO)C(=O)N[C@@H](Cc1ccc(O)cc1)C(=O)N[C@@H](CCCNC(=N)N)C(=O)N[C@@H](CCCCN)C(=O)N[C@H](C(=O)N[C@@H](CC(C)C)C(=O)N[C@@H](C)C(=O)N[C@@H](CCC(N)=O)C(=O)N[C@@H](CC(C)C)C(=O)N[C@@H](CCCCN)C(=O)N[C@@H](C)C(=O)N[C@@H](CCCNC(=N)N)C(=O)N[C@@H](CCC(N)=O)C(=O)N[C@@H](CC(=O)O)C(=O)N[C@H](C(=O)N[C@@H](CC(C)C)C(=O)N[C@@H](C)C(=O)N[C@@H](CCCNC(=N)N)C(=O)N[C@@H](C)C(=O)N[C@@H](C)C(=O)N[C@@H](CCCNC(=N)N)C(=O)N[C@@H](C)C(=O)N[C@@H](C)C(=O)N[C@@H](CCCNC(=N)N)C(N)=O)[C@@H](C)CC)C(C)C)[C@@H](C)O)[C@@H](C)CC [SEQ ID NO: 31, Trans-3-hexenoyl-YADAIFTDSYRKVLAQLKARQDILARAARAAR-NH2] (HELM PEPTIDE1{[CC/C=C/CC(=O)[*:2]].Y.A.D.A.I.F.T.D.S.Y.R.K.V.L.A.Q.L.K.A.R.Q.D.I.L.A.R.A.A.R.A.A.R.[am]}$$$$V2.0)",9093,459.9,563.6
